Measured values reported in PubChem BioAssay (NCI).
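Following 48 hours of exposure in 96-well plates, responses at five concentrations were used to interpolate endpoints linearly. TGI: concentration producing complete growth inhibition.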

How the values were obtained:
Assay in all cases: inhibition of tumour cell growth, NCI panel, 48 h
NCI/ADR-RES ovarian = system: NCI/ADR-RES ovarian
SK-MEL-2 melanoma = system: SK-MEL-2 melanoma
M14 melanoma = system: M14 melanoma
TK-10 renal = system: TK-10 renal
OVCAR-8 ovarian = system: OVCAR-8 ovarian
KM12 colon = system: KM12 colon
BT-549 breast = system: BT-549 breast
UACC-257 melanoma = system: UACC-257 melanoma
K-562 leukemia = system: K-562 leukemia
NCI-H460 lung = system: NCI-H460 lung
DU-145 prostate = system: DU-145 prostate
LOX IMVI melanoma = system: LOX IMVI melanoma
RXF 393 renal = system: RXF 393 renal
PC-3 prostate = system: PC-3 prostate
SF-295 CNS = system: SF-295 CNS
SN12C renal = system: SN12C renal
OVCAR-4 ovarian = system: OVCAR-4 ovarian
SW-620 colon = system: SW-620 colon
A498 renal = system: A498 renal
OVCAR-3 ovarian = system: OVCAR-3 ovarian
U251 CNS = system: U251 CNS
UACC-62 melanoma = system: UACC-62 melanoma
MCF7 breast = system: MCF7 breast
HS 578T breast = system: HS 578T breast
MALME-3M melanoma = system: MALME-3M melanoma
CAKI-1 renal = system: CAKI-1 renal
NCI-H23 lung = system: NCI-H23 lung
CCRF-CEM leukemia = system: CCRF-CEM leukemia
SF-539 CNS = system: SF-539 CNS
ACHN renal = system: ACHN renal
SR leukemia = system: SR leukemia
HT29 colon = system: HT29 colon
NCI-H226 lung = system: NCI-H226 lung
SNB-75 CNS = system: SNB-75 CNS
HL-60(TB) leukemia = system: HL-60(TB) leukemia
MOLT-4 leukemia = system: MOLT-4 leukemia
IGROV1 ovarian = system: IGROV1 ovarian
A549 NSCLC = system: A549 NSCLC
UO-31 renal = system: UO-31 renal
SK-MEL-28 melanoma = system: SK-MEL-28 melanoma
SF-268 CNS = system: SF-268 CNS
EKVX NSCLC = system: EKVX NSCLC
HOP-62 NSCLC = system: HOP-62 NSCLC
OVCAR-5 ovarian = system: OVCAR-5 ovarian
HCT-15 colon = system: HCT-15 colon
HCC-2998 colon = system: HCC-2998 colon
HOP-92 NSCLC = system: HOP-92 NSCLC
MDA-MB-231 breast = system: MDA-MB-231 breast
HCT-116 colon = system: HCT-116 colon
SNB-19 CNS = system: SNB-19 CNS
RPMI-8226 leukemia = system: RPMI-8226 leukemia
SK-MEL-5 melanoma = system: SK-MEL-5 melanoma
NCI-H522 lung = system: NCI-H522 lung
COLO 205 colon = system: COLO 205 colon
786-0 renal = system: 786-0 renal
MDA-MB-435 = system: MDA-MB-435
MDA-N = system: MDA-N
T-47D breast = system: T-47D breast
SK-OV-3 ovarian = system: SK-OV-3 ovarian
SNB-78 CNS = system: SNB-78 CNS
KM20L2 colon = system: KM20L2 colon
XF 498 CNS = system: XF 498 CNS
DMS 114 small cell lung = system: DMS 114 small cell lung
DLD-1 colon = system: DLD-1 colon
M19-MEL melanoma = system: M19-MEL melanoma

Measured: TGI

C/C(=N\NC(N)=O)C(CN(C)C)C(c1ccccc1)c1c(O)c2ccccc2oc1=O (stereo unspecified)
7.67 µM: HOP-92 NSCLC
not listed: SK-OV-3 ovarian | SNB-78 CNS | KM20L2 colon | XF 498 CNS | DMS 114 small cell lung | DLD-1 colon | M19-MEL melanoma
> 100 µM: all other assays above

CN(N)/N=N/c1nc[nH]c1C(N)=O
> 70.9 µM: SF-295 CNS
> 62.2 µM: UO-31 renal
2.23 µM: SR leukemia
> 42.2 µM: HCC-2998 colon
> 71.5 µM: NCI-H460 lung
55.2 µM: CAKI-1 renal
> 69.7 µM: COLO 205 colon
> 32.2 µM: MDA-MB-231 breast
8.05 µM: MOLT-4 leukemia
> 82.4 µM: KM12 colon
> 57.2 µM: SN12C renal
14.6 µM: HL-60(TB) leukemia
> 27 µM: CCRF-CEM leukemia
not listed: SNB-78 CNS | KM20L2 colon | XF 498 CNS | DMS 114 small cell lung | DLD-1 colon | M19-MEL melanoma
> 100 µM: all other assays above

Clc1ncnc2c1nc(C#Cc1ccccc1)n2Cc1ccccc1
53.8 µM: MDA-N
29 µM: DU-145 prostate
44.2 µM: SK-MEL-28 melanoma
34.9 µM: U251 CNS
59.9 µM: HOP-92 NSCLC
48 µM: RXF 393 renal
98.4 µM: SK-MEL-2 melanoma
36.6 µM: HCT-15 colon
27 µM: HCC-2998 colon
43 µM: MDA-MB-435
53 µM: M14 melanoma
92.2 µM: SNB-75 CNS
36.7 µM: NCI-H522 lung
49.8 µM: BT-549 breast
37.1 µM: CAKI-1 renal
28.3 µM: LOX IMVI melanoma
42.8 µM: NCI-H23 lung
74.7 µM: UACC-257 melanoma
35.8 µM: OVCAR-4 ovarian
83.8 µM: SF-539 CNS
71 µM: MDA-MB-231 breast
72.2 µM: HT29 colon
53.9 µM: OVCAR-8 ovarian
60 µM: SN12C renal
45.8 µM: COLO 205 colon
21.6 µM: OVCAR-3 ovarian
5.47 µM: UO-31 renal
29.3 µM: EKVX NSCLC
not listed: IGROV1 ovarian | RPMI-8226 leukemia | SNB-78 CNS | KM20L2 colon | XF 498 CNS | DMS 114 small cell lung | DLD-1 colon | M19-MEL melanoma
> 100 µM: all other assays above

Cc1cccc(C)c1NC(=O)CCCC(=O)C1CC(=O)CCC1=O (stereo unspecified)
not listed: NCI/ADR-RES ovarian | SK-MEL-2 melanoma | M14 melanoma | TK-10 renal | KM12 colon | BT-549 breast | K-562 leukemia | NCI-H460 lung | DU-145 prostate | LOX IMVI melanoma | PC-3 prostate | SF-295 CNS | SW-620 colon | MCF7 breast | HS 578T breast | CAKI-1 renal | CCRF-CEM leukemia | HL-60(TB) leukemia | IGROV1 ovarian | A549 NSCLC | OVCAR-5 ovarian | HOP-92 NSCLC | MDA-MB-231 breast | SK-MEL-5 melanoma | COLO 205 colon | MDA-MB-435 | MDA-N | T-47D breast
> 100 µM: all other assays above
